Data reported in patent US4269940A, “Microbiological alkane oxidation process” (priority 1979, dated 1981).
Read-outs that look alike come from different tables or passages of the source.

Assays:
[1] = tested on: Methylobacter vinelandii (CRL M5Y NRRL B-11,218); test: Microbiological oxidation of cyclic hydrocarbons by methane-grown washed cells (Example 7); type: cell-based; details: aerobic
Protocol: A 0.5 ml sample of each washed cell suspension (2 mg cells) was put into 10 ml vials at 4° C. which were sealed with a rubber cap. The gaseous phase of the vials was removed with vacuum and then was replaced with a gas mixture of the oxidative substrate (e.g., methane) and oxygen at a 1:1 v/v ratio. […] Samples of product (3 μl) were withdrawn periodically with a microsyringe and the products were analyzed by gas chromatography (ionization flame detector column).
Methylobacter vinelandii (CRL M5Y NRRL B-11,218) was aerobically grown in a methane-containing nutrient medium in the manner described in Example 1 and the methane-grown washed cells were contacted under aerobic conditions with cyclohexane, benzene and toluene.

[2] = tested on: P(40) particulate fraction of Methylosinus sp. (CRL-15, NRRL B-11,202); test: Oxidation of n-alkenes and n-alkanes by P(40) particulate fraction (Table X); type: biochemical; details: P(40) fraction, 30° C.
[3] = tested on: cell suspensions of the strains of C1-utilizers tested; test: Production of methyl ketones from secondary alcohols by cell suspensions of C1-utilizers (strains tested); type: cell-based; details: cell suspensions of C1-utilizers
Text: The substrate specificity for the oxidation of C3 -C6 secondary alcohols by the strains of C1 -utilizers was studied.

[4] = tested on: secondary alcohol dehydrogenase (SADH); test: Substrate specificity and Michaelis constants of purified SADH; type: biochemical, Pseudomonas sp. ATCC 21439
Protocol: Secondary alcohol dehydrogenase (SADH) from an obligate methanol utilizer, Pseudomonas sp. ATCC 21439 was purified as follows. […] 0.05 M sodium phosphate buffer, pH 7.0 with 0.5mM dithiothretol (buffer A) and were disrupted sonically (5×1 min.). The crude extract was separated by centrifugation. The crude extract was heat-treated at 50° C. in a water bath for 10 minutes. The resulting precipitate was removed by centrifugation. To the supernatant solution, 25 ml of protamine sulfate solution (2% solution in 0.1 M Tris base) was added dropwise with continuous stirring. After standing for 30 minutes, the extract was centrifuged. The supernatant solution was fractionated with solid ammonium sulfate. […] This DEAE-cellulose eluate was concentrated by ammonium sulfate fractionation. Material precipitating between 30 and 50% ammonium sulfate saturation was collected by centrifugation and dialyzed overnight against A. This fraction was further washed and filtered through an Amicon unit with XM 50 membrane. The concentrated fraction (6 ml) inside the Amicon unit was applied to an Affi-Gel Blue column (0.8 cm ×18 cm) which had been equilibrated with buffer A for affinity chromatography. The column was washed overnight with buffer A (0.18 ml./min.) and then was eluted with buffer A containing 5 mM NAD. Each 1 ml. fraction was collected.
The purified secondary alcohol dehydrogenase enzyme (SADH) may be used directly for converting C3 -C6 secondary alcohols to the corresponding methyl ketones by the procedures described above; however, a source of NAD^+ must be added to the reaction medium. One can determine the NAD-linked secondary alcohol dehydrogenase activity with a fluorescence spectrophotometer (Perkin Elmer, Model MPF 44A) by following the formation of reduced NAD (Ex 340 nm, Em 460 nm). The assay system (3 ml.) will typically contain: sodium phosphate buffer pH 7.0, 150 μmol; NAD 1.0 μmol; a given amount of enzyme preparation; and 20 μmol secondary alcohol. The reaction is started by the addition of secondary alcohol. One unit of SADH enzyme activity represents the reduction of one nmole NAD per minute.

[5] = tested on: purified secondary alcohol dehydrogenase; test: Substrate and electron acceptor specificity of purified yeast secondary alcohol dehydrogenase; type: biochemical, Pichia sp. NRRL Y-11,328; details: for Oxidation by the purified yeast enzyme (in words): examined spectrophotometrically
Protocol: (§1) Large scale cultures of Pichia sp. NRRL Y-11,328 were grown with aeration at 30° C. in a 14-liter New Brunswick f fermentor in a mineral salt medium containing methanol (0.4%, v/v) as the sole carbon source. The cells (200 g., wet weight) were suspended in 50 mm sodium phosphate buffer, pH 7.0, containing 1 mM dithiothreitol (buffer A), and crude extracts were prepared as described previously. To the crude extracts, 18 ml. of protamine sulfate solution [2% solution in 0.1 M tris (hydroxymethyl) aminomethane (tris) base] was added dropwise with continuous stirring. After standing for 30 min., the extracts were centrifuged at 20,000 x g. for 60 min. The supernatant solution was fractioned with solid ammonium sulfate. Extracts were brought to 50% of saturation with respect to ammonium sulfate by addition of 313 g. of the salt per liter of extract. Precipitated proteins was removed by centrifugation, and 137 g. of ammonium sulfate was added per liter of the supernatant liquid to bring it to 70% of saturation. Material precipitating between 50 and 70% of saturation was collected by centrifugation and dissolved in buffer A. This preparation was dialyzed overnight against buffer A, and the dialyzed material was applied to a DEAE-cellulose column (5×40 cm) that had been equilibrated with buffer A. The sample was washed with 200 ml. of buffer A and eluted with 2 liters of buffer A that contained NaCl in a linear gradient running from a concentration of 0 to 0.5 M. Fractions of 15 ml. were collected. Fractions containing secondary alcohol dehydrogenase activity were pooled and were termed DEAE-cellulose eluate. The DEAE-cellulose eluate was concentrated by ammonium sulfate fractionation.
(§2) Secondary alcohol dehydrogenase activity was measured spectrophotometrically at 340 nm with a NAD^+ as an electron acceptor. The reaction mixture, in a total 3.0 ml., contained 50 mM phosphate buffer, pH 8.0, 5μmoles NAD^+, crude extracts, and substrate. The reactions were started by addition of 100 μof 0.1 M substrate and the rate of NAD^+ reduction was measured. Protein concentration was determined by the method of Lowry et al.
The substrate specificity of the purified secondary alcohol dehydrogenase was examined spectrophotometrically.

[6] = tested on: purified secondary alcohol dehydrogenase; test: Stoichiometry of isopropanol and sec-butanol oxidation by the purified secondary alcohol dehydrogenase (Table XXIV); type: biochemical, Pichia sp. NRRL Y-11,328; details: substrate 5.7 (isopropanol) or 6.0 (2-butanol) μmoles; for Product formed (acetone or 2-butanone): gas chromatography; for NAD^+ reduced: spectrophotometrically at 340 nm
Protocol: ^a The estimation of NAD^+ reduced was measured
spectrophotometrically at 340 nm.
^b The estimation of products was detected by gas chromatography as
described in the methods.

[7] = tested on: cell-free extracts of strain ATCC 21439; details: 30° C.
Protocol: The reaction mixtures 3 ml (1.0 mg protein) were incubated at 30°
C. for 10 min. (exp. 1) and for 20 min. (exp. 2) in the presence of 1.0
^a Determined gas chromatographically.
^b Determined fluorescence spectrophotometrically. Endogenous
consumption of NAD was corrected.

[8] = tested on: cell-free soluble extracts (SADH system); test: Cofactor requirement of cell-free SADH system (2-butanol to 2-butanone); type: biochemical
Protocol: The clear supernatant contained the SADH activity. […] The reaction was started by the addition of substrate.
Catalytic activity was also assayed by fluorescence spectrophotometry.

[9] = tested on: P(40) particulate fraction of Methylosinus sp. (CRL-15, NRRL B-11,202); test: Substrate competition: effect of methane on propylene epoxidizing activity of P(40) fraction (Table XIII); type: biochemical; details: gaseous substrate as named
Protocol: The oxidation of methane and propylene by particulate [(P)40 and (P)80] fractions and soluble [S(80)] fraction was measured at 30° C. by estimating the production of methanol and propylene oxide, respectively. The reaction mixtures contained in 1.0 ml: 150 mM potassium phosphate buffer, pH 7.0 containing 5 mM MgC2, 0.6 ml; 10 μmoles NADH, and cellular fraction.
Reaction mixtures were contained in 10 ml vials at 4° C. Vials were sealed with rubber caps. The gaseous phase in the vials was removed using vacuum and then was replaced with a gas mixture of methane or propylene and oxygen at a 1:1, v/v ratio. Oxidation of other gaseous n-alkanes and n-alkenes was examined as described above. For liquid substrates, 10 μ of substrate was used directly.
The hydroxylation of methane and the epoxidation of propylene by particulate fractions of methane-utilizing bacteria required oxygen and NADH. The question of whether the same or a similar enzyme was involved in the oxidation of both substrates was examined by substrate competition experiments. The experiment consisted of determining the effect of methane on the oxidation of propylene to propylene oxide by the P(40) particulate fraction of Methylosinus sp. (CRL-15, NRRL B-11,202).

[10] = tested on: P(40) particulate fraction of Methylosinus sp. (CRL-15, NRRL B-11,202); test: Stoichiometry of propylene epoxidation and methane hydroxylation by P(40) fraction (Table XIV); type: biochemical; details: 5.0 μmoles substrate; for Product formed: gas chromatography; for O2 consumed: polarographic; for NADH oxidized: spectrophotometric
Protocol: The particulate P(40) fraction of Methylosinus sp. (CRL-15, NRRL B-11,202) was used to determine the stoichiometry of hydroxylation and epoxidation reactions. The stoichiometry of methane or propylene-dependant NADH oxidation, oxygen consumption and product formation was approximately 1:1:1 Table XIV. This is consistent with methane or propylene oxygenation being catalyzed by a mono-oxygenase.
^a Under identical condition of reaction, the estimation of NADH
oxidized was carried out spectrophotometrically, the estimation of oxygen
consumed was measured polarographically, and the estimation of product
formed was carried out by gas chromatography.

[11] = tested on: cell-free particulate fractions derived from the methylotrophic microorganisms; test: Inhibition of conversion of C3-C6 n-alkanes to sec. alcohols by cell-free particulate fractions; type: biochemical; details: oxygen and NADH
Text: The conditions for preparing the cell suspensions or the cell-free particulate fractions from methane-grown methylotroph microorganisms is the same as described above.

[12] = tested on: purified secondary alcohol dehydrogenase; test: Inhibition of purified yeast secondary alcohol dehydrogenase; type: biochemical, Pichia sp. NRRL Y-11,328; details: purified yeast enzyme
Protocol: as §1, §2
Various primary alcohols not oxidized by secondary alcohol dehydrogenase were tested as potential inhibitors of enzyme activity.

SMILES: c1ccccc1 [benzene]
- Oxidative conversion [1]: no oxidative conversion was detected

SMILES: CC [Ethane]
- Rate of product formation (substrate to epoxide or alcohol) [2]: 3.2 μ moles/hr/mg of protein

SMILES: C=CCC [1-Butene]
- Rate of product formation (substrate to epoxide or alcohol) [2]: 2.18 μ moles/hr/mg of protein

SMILES: CCC(C)O (stereo not shown) [2-butanol]
- Rate of oxidation of secondary alcohols to methyl ketones [3]: higher rates
- Oxidation by purified SADH (in words) [4]: highest
- Oxidation by the purified yeast enzyme (in words) [5]: catalyzed the oxidation
- Product formed (acetone or 2-butanone) [6]: 5.7 µmol
- NAD^+ reduced [6]: 5.9 µmol
- 2-Butanol consumed ([7]; experiment 1, 10 min.): 260 nmol
- 2-Butanol consumed ([7]; experiment 2, 20 min.): 530 nmol
- NAD consumed ([7]; experiment 2, 20 min.): 540 nmol

SMILES: Cc1cc2nc3c(=O)[nH]c(=O)nc-3n(C[C@H](O)[C@H](O)[C@H](O)COP(=O)(O)OP(=O)(O)OC[C@H]3O[C@@H](n4cnc5c(N)ncnc54)[C@H](O)[C@@H]3O)c2cc1C [FAD, flavin adenine dinucleotide, reference compound]
- Function as electron acceptor/carrier for the purified yeast enzyme [5]: could not act as electron carrier
- Effectiveness as cofactor of the cell-free SADH system [8]: not effective

SMILES: NC(=O)c1ccc[n+]([C@@H]2O[C@H](COP(=O)([O-])OP(=O)(O)OC[C@H]3O[C@@H](n4cnc5c(N)ncnc54)[C@H](OP(=O)(O)O)[C@@H]3O)[C@@H](O)[C@H]2O)c1 [NADP, reference compound]
- Function as electron acceptor/carrier for the purified yeast enzyme [5]: could not act as electron carrier
- Effectiveness as cofactor of the cell-free SADH system [8]: not effective

SMILES: CC(C)O [2-propanol]
- Rate of oxidation of secondary alcohols to methyl ketones [3]: higher rates
- Oxidation by purified SADH (in words) [4]: highest
- Oxidation by the purified yeast enzyme (in words) [5]: catalyzed the oxidation
- Product formed (acetone or 2-butanone) [6]: 5.5 µmol
- NAD^+ reduced [6]: 5.4 µmol

SMILES: NC(=O)C1=CN([C@@H]2O[C@H](COP(=O)(O)OP(=O)(O)OC[C@H]3O[C@@H](n4cnc5c(N)ncnc54)[C@H](OP(=O)(O)O)[C@@H]3O)[C@@H](O)[C@H]2O)C=CC1 [NAD(P)H]
- Effectiveness as cofactor of the cell-free SADH system [8]: not effective

SMILES: C=CCCC [1-Pentene]
- Rate of product formation (substrate to epoxide or alcohol) [2]: 0 μ moles/hr/mg of protein

SMILES: C1CCCCC1 [Cyclohexane]
- Conversion rate to cyclohexanol [1]: 1.5 μmoles/2 hr./mg. protein

SMILES: Cc1ccccc1 [toluene]
- Oxidative conversion [1]: no oxidative conversion was detected

SMILES: O=C1C(Cl)=CC(=Nc2ccc(O)cc2)C=C1Cl [dichlorophenol indophenol, reference compound]
- Function as electron acceptor/carrier for the purified yeast enzyme [5]: could not act as electron carrier
- Effectiveness as cofactor of the cell-free SADH system [8]: not effective

SMILES: NC(=O)c1ccc[n+]([C@@H]2O[C@H](COP(=O)([O-])OP(=O)(O)OC[C@H]3O[C@@H](n4cnc5c(N)ncnc54)[C@H](O)[C@@H]3O)[C@@H](O)[C@H]2O)c1 [NAD, Nicotinamide adenine dinucleotide, reference compound]
- Function as electron acceptor/carrier for the purified yeast enzyme [5]: required
- Effectiveness as cofactor of the cell-free SADH system [8]: required

SMILES: C [Methane]
- Rate of product formation (substrate to epoxide or alcohol) [2]: 4.8 μ moles/hr/mg of protein
- Propylene oxide produced [9]: 0 μmoles/hr/mg. protein
- Product formed [10]: 4.2 µmol
- O2 consumed [10]: 4.6 µmol
- NADH oxidized [10]: 4.8 µmol

SMILES: C=CC [Propylene]
- Rate of product formation (substrate to epoxide or alcohol) [2]: 4.1 μ moles/hr/mg of protein
- Propylene oxide produced [9]: 4.3 μmoles/hr/mg. protein
- Product formed [10]: 4.5 µmol
- O2 consumed [10]: 4.8 µmol
- NADH oxidized [10]: 5.0 µmol
- Inhibition of conversion of C3-C6 n-alkanes to sec. alcohols (in words) [11]: inhibit
- Inhibition of conversion of C3-C6 n-alkanes to sec. alcohols (in words) ([11]; listed as propylene): inhibited

SMILES: C=C [Ethylene]
- Rate of product formation (substrate to epoxide or alcohol) [2]: 1.27 μ moles/hr/mg of protein

SMILES: N[C@@H](CCC(=O)N[C@@H](CS)C(=O)NCC(=O)O)C(=O)O [glutathione]
- Inhibition of secondary alcohol dehydrogenase activity (in words) [12]: strongly inhibited
- Effectiveness as cofactor of the cell-free SADH system [8]: not effective

SMILES: C=CC=C [Butadiene]
- Rate of product formation (substrate to epoxide or alcohol) [2]: 0.63 μ moles/hr/mg of protein

SMILES: C[n+]1c2ccccc2nc2ccccc21 [phenazine methosulfate, reference compound]
- Function as electron acceptor/carrier for the purified yeast enzyme [5]: could not act as electron carrier
- Effectiveness as cofactor of the cell-free SADH system [8]: not effective
